This is an account of results in PubChem BioAssay (NCI).

“And” between values parts separate entries of the source, which are not always exact repeats. Equal values may be shown once.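 Assay format: 96-well plates, 48-hour exposure. The concentration for 50% growth inhibition is given as GI50. TGI denotes the concentration required for complete inhibition of growth.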

Test in all cases: NCI tumour cell line growth inhibition, 48 h
The subject of assay [1] is DU-145 prostate.
The test system of assay [2] is IGROV1 ovarian.
In assay [3] the test system is M14 melanoma.
Assay [4] relates to NCI-H460 lung.
The test system of assay [5] is OVCAR-3 ovarian.
Assay [6] relates to RXF 393 renal.
For assay [7], the system named is SK-MEL-28 melanoma.
The test system of assay [8] is SNB-19 CNS.
Assay [9] deals with TK-10 renal.
Assay [10] deals with UACC-257 melanoma.

In the case of `COc1cc(NC(=O)CCSc2nc3ccc(C)cc3c(=O)n2Cc2ccccc2)cc(OC)c1OC`, the GI50 in assay [1] was 66 µM; in assay [2], 27.7 µM; in assay [3] it was 24.4 µM; in [4], 5.31 µM; in assay [5], 5.05 µM; in assay [6] it was 3.48 µM. Besides, the GI50 in assay [7] is 6.3 µM; in assay [8], 3.17 µM; in assay [9] it was 7.43 µM; in assay [10], 4.96 µM. For the same molecule, the TGI was greater than 100 µM in assay [1]; greater than 100 µM in assay [2]; greater than 100 µM in assay [3]; greater than 100 µM in assay [4]; greater than 100 µM in [5]; 16.6 µM in [6]. In addition, the TGI in assay [7] was greater than 100 µM; in assay [8], 18.5 µM; in assay [9] it was 28.4 µM; in [10], greater than 100 µM.

Turning to `CC(C)=CCC(OC(=O)C=C(C)C)C1=CC(=O)c2c(O)ccc(O)c2C1=O` (stereo not drawn), the GI50 in [1] is 1.72 µM; in assay [3], 3.51 µM; in [4], 5.21 µM; in assay [5], 0.5 µM; in assay [7], 1.01 µM; in assay [8], 21.9 µM. For the same molecule, the GI50 in [9] was 0.738 µM; in assay [10], 1.51 µM. In addition, the TGI in assay [1] is 3.92 µM; in assay [2] it was 4.42 µM; in assay [3], 9.57 µM; in [4] it was 21.1 µM and 6.53 µM; in [5], 2.07 µM and 2.62 µM; in [6], 0.533 µM and 0.467 µM. Also, the TGI is 2.52 µM and 2.67 µM in assay [7]; 40.2 µM and 15.3 µM in assay [8]; 2.41 µM in [9]; 4.15 µM and 2.5 µM in assay [10].

Regarding `C=C1CCC2(C#N)[C@H]3[C@H](CC[C@@H]2C)[C@@H](C)C[C@@H](CC(C)(C)NC(=O)CN2CCC2=O)[C@H]13` (stereo partly drawn), the GI50 in [1] is 12.1 µM; in assay [2], 6.03 µM; in [3] it was 4.56 µM; in [4] it was 7.81 µM; in assay [5], 3.72 µM; in [6] it was 11.5 µM. The GI50 in assay [7] was 10.2 µM; in assay [8], 9.58 µM; in assay [9] it was 16.2 µM; in [10], 5.4 µM. Also, the TGI in [1] turned out to be 41.1 µM; in [2] it was 23 µM; in [3], 17.8 µM; in assay [4], 20.5 µM; in [5] it was 15 µM; in assay [6], 28 µM. Besides, the TGI in assay [7] was determined as 23 µM; in assay [8] it was 48.4 µM; in assay [9], 43.3 µM; in [10] it was 26.7 µM.

For the molecule `S=c1nc(N/N=C/c2ccco2)c2cn[nH]c2[nH]1`, the GI50 is 61.8 µM in [1]; 46.9 µM in assay [2]; greater than 100 µM in assay [3]; 17.9 µM in assay [4]; 32.3 µM in [5]; greater than 100 µM in [6]. Further, the GI50 in assay [7], in assay [8], in assay [9] and in assay [10] was greater than 100 µM in each case. Moreover, the TGI in assay [1], in [2], in assay [3], in assay [4], in assay [5] and in assay [6] was greater than 100 µM each time. Besides, the TGI in assay [7], in assay [8], in assay [9] and in [10] was greater than 100 µM in each case.

Regarding `CC1=Nc2ccccc2/C1=C\c1c(C)[nH]c2ccccc12`, the TGI in assay [1] is 31.2 µM; in [2], 25.4 µM; in assay [3], greater than 100 µM; in assay [4] it was 44.6 µM; in assay [5], 34.8 µM; in [6], 33.2 µM. The TGI came out at 37.9 µM in [7], 35.5 µM in assay [8], 32.2 µM in assay [9] and 30.3 µM in [10].

As for `OCc1ccc(-c2cscc2-c2ccc(CO)o2)o1`, the GI50 in assay [1] is 25.9 µM; in assay [2] it was 0.576 µM; in assay [3] it was greater than 100 µM; in [4] it was 1.34 µM; in assay [5], 4.04 µM; in [6], greater than 20.8 µM. The GI50 was greater than 100 µM in [7], greater than 100 µM in [8], greater than 100 µM in [9] and 0.507 µM in [10]. Further, the TGI in assay [1] was greater than 100 µM; in assay [2] it was 6.47 µM; in assay [3] it was greater than 100 µM; in [4], 5.92 µM; in [5] it was 30.6 µM; in assay [6] it was greater than 89.5 µM. The TGI is greater than 100 µM in assay [7], greater than 100 µM in [8], greater than 100 µM in assay [9] and 1.91 µM in [10].

For `COc1ncnc(S(=O)(=O)c2ccc(N=C3C(=O)N(CN4CCN(c5cc6c(cc5F)c(=O)c(C(=O)O)cn6C5CC5)CC4)c4ccc(Cl)cc43)cc2)c1OC`, the GI50 is greater than 50 µM in [1]; greater than 50 µM in assay [2]; greater than 50 µM in assay [3]; 37.4 µM in [4]; greater than 50 µM in [5]; greater than 50 µM in assay [6]. The GI50 was greater than 50 µM in assay [7], greater than 50 µM in assay [8], 8.78 µM in assay [9] and 46.4 µM in assay [10]. In addition, the TGI in [1], in [2], in assay [3], in [4], in assay [5] and in assay [6] was greater than 50 µM throughout. Further, the TGI in assay [7] is greater than 50 µM; in assay [8], greater than 50 µM; in assay [9], 36.7 µM; in assay [10] it was greater than 50 µM.

With `Cc1c2c(c(C)c3c4c(oc13)CCCC4)C=NCC2`, the TGI in assay [1] was 28.5 µM; in [2] it was 26.5 µM; in assay [3] it was 44.5 µM; in assay [4], 31.2 µM; in assay [5], 31.5 µM; in assay [6], 15.9 µM. In addition, the TGI amounted to 35.7 µM in assay [7], 53.5 µM in [8], 25.4 µM in assay [9] and 29.5 µM in assay [10].

As for `O=C(c1ccccc1)c1c(NCC(O)CN2CCOCC2)n(Cc2ccccc2)c(=O)n(Cc2ccccc2)c1=O` (stereo not drawn), the GI50 is 35.2 µM in assay [1]; 38.5 µM in [2]; 38.9 µM in [3]; 42.9 µM in assay [4]; 27.6 µM in assay [5]; 25.3 µM in assay [6]. Further, the GI50 is greater than 64.1 µM in assay [7], 19.1 µM in assay [8], 30.2 µM in assay [9] and 55.8 µM in [10]. The TGI in assay [1] is greater than 77.5 µM; in [2], greater than 100 µM; in assay [3] it was greater than 100 µM; in assay [4], greater than 100 µM; in assay [5], greater than 77.3 µM; in [6] it was greater than 94 µM. Besides, the TGI in [7] was greater than 100 µM; in assay [8], greater than 84.7 µM; in [9], greater than 100 µM; in [10], greater than 100 µM.

On to `Cc1cc(O)c(C2=NN(c3ccc(S(N)(=O)=O)cc3)C(c3ccc(Cl)cc3)C2)c(C)c1Cl` (stereo not drawn), for which the GI50 in assay [1] was 5.6 µM; in [2], 6.19 µM; in assay [3], 2.62 µM; in [4], 2.53 µM; in assay [5] it was 4.21 µM; in [6], 5.83 µM. Further, the GI50 in [7] was 11.7 µM; in [8], 12.4 µM; in assay [9] it was 4.48 µM; in assay [10], 11.9 µM. In addition, the TGI in [1] was determined as 17.6 µM; in assay [2], 22.3 µM; in assay [3], 10.4 µM; in assay [4] it was 7.24 µM; in [5], 15.7 µM; in assay [6], 21.1 µM. The TGI came out at 23.9 µM in [7], 24.9 µM in [8], 18.8 µM in [9] and 26.8 µM in [10].

In the case of `Cn1cc(C2=C(c3cn(C)c4ccc(Cl)cc34)C(=O)NC2=O)c2ccccc21`, the GI50 in assay [1] was 8.45 µM; in assay [2] it was 6.51 µM; in [3], 2.63 µM; in assay [4], 3.25 µM; in [5] it was 1.44 µM; in [6], 3.19 µM. The GI50 in assay [7] was 4.26 µM; in assay [8] it was 8.33 µM; in [9], 5.55 µM; in assay [10], 5.09 µM. The TGI in [1] is greater than 25 µM; in assay [2], greater than 21.7 µM; in assay [3] it was greater than 24 µM; in assay [4] it was 8.9 µM; in assay [5], 6.88 µM; in [6], 7.76 µM. Also, the TGI in assay [7] was 19.6 µM; in [8], greater than 25 µM; in assay [9] it was 23 µM; in assay [10], 16.8 µM.

`C1CC2CN(CCCN3CCOCC3)C(C1)O2` (stereo not drawn): the TGI in [1], in [2], in assay [3], in [4], in assay [5] and in assay [6] was greater than 100 µM each time. Further, the TGI in [7], in assay [8], in assay [9] and in assay [10] was greater than 100 µM in each case.

For the molecule `c1cncc(CNCc2cccnc2)c1`, the TGI in assay [1], in assay [2], in assay [3], in assay [4], in assay [5] and in assay [6] was greater than 100 µM in each case. The TGI in [7], in [8], in assay [9] and in assay [10] was greater than 100 µM each time.
